# Data reported in patent publication US20240110915A1, “METHODS, PRODUCTS AND SYSTEMS FOR PROGNOSIS OF SUBJECTS SUFFERING FROM MULTIPLE MYELOMA” (University of South Australia, priority 2020, published 2024).
# What was measured:
# DSG2 = DSG2 protein knockdown in KMS-11 cells by Western blot; format: cell-based, human; conditions: stable shRNA expression
# Source text: Lentiviral vectors (pGIPZ) expressing DSG2-shRNA and non-silencing control-shRNA were obtained from Open Biosystem (Dharmacon). The following shRNA sequences were cloned into the pGIPZ expression plasmid: 5′-TGGATGTCAATGACAATAT-3′ (DSG2-shRNA60) (SEQ ID NO. 2); 5′-CCAGTGTTCTACCTAAATA-3′ (DSG2-shRNA62) (SEQ ID NO. 3); and
# 5′-[…]-3′ (non-silencing shRNA) (SEQ ID NO. 4). Replication incompetent lentiviral particles were generated by transiently co-transfecting HEK293T cells with ViraPower Lentiviral Support Kit (Invitrogen) and pGIPZ-shRNA vectors using Lipofectamine 2000 (Invitrogen). […]
# KMS-11 cells cultured on 100 mm Petri dishes were washed twice with ice-cold PBS and solubilized in RIPA lysis buffer (150 mM NaCl, 50 mM Tris-HCl, pH 7.5, 1% Triton X-100, 1% deoxycholate, 0.1% SDS, and 2 mM EDTA) containing both protease (cOmplete™, Roche) and phosphatase inhibitors (PhosStop™, Roche) for 10 min on ice. The lysates were clarified by centrifugation at 13,000×g for 10 min at 4° C., and protein concentrations determined using the bicinchoninic acid protein assay kit (Pierce). […] After washing, immunoreactivity was detected by using the Odyssey infrared imager (Li-COR). […] Band intensities were quantitated by densitometry using the software associated with the Odyssey infrared imager (Li-COR).
# [1] = tested on: KMS-11 human multiple myeloma cells; assay: Cell viability by AnnexinV staining, flow cytometric analysis; format: cell-based; conditions: overnight exposure, 4 nM
# Source text: (§1) Lentiviral vectors (pGIPZ) expressing DSG2-shRNA and non-silencing control-shRNA were obtained from Open Biosystem (Dharmacon) and cloned into the pGIPZ expression plasmid: 5′-TGGATGTCAATGACAATAT-3′ (SEQ ID NO: 2; DSG2-shRNA60); 5′-CCAGTGTTCTACCTAAATA-3′ (SEQ ID NO:3; DSG2-shRNA62); and 5′-[…]-3′ (SEQ ID NO: 4; non-silencing shRNA). Replication incompetent lentiviral particles were generated by transiently co-transfecting HEK293T cells with ViraPower Lentiviral Support Kit (Invitrogen) and pGIPZ-shRNA vectors using Lipofectamine 2000 (Invitrogen). Lentiviral supernatant was harvested 72 hours post-transfection and used to transduce 1×10^5 KMS-11 cells that were seeded in a 6-well plate, in the presence of 4 μg/mL polybrene. Puromycin (1 μg/mL) was continually added to maintain culture of cells with the transduced vectors and DSG2 expression was routinely checked using flow cytometry and western blot. Cell without and with DSG2 KD were cultured with increasing concentrations of Bortezomib (2-4 nM, (Janssen Cilag, New Brunswick NJ)) and after 12 hours the cell viability was determined using AnnexinV staining using flow cytometric analysis.
# [2] = tested on: KMS-11 cells with stable knockdown of DSG2 (DSG2 shRNA); assay: Cell viability by AnnexinV staining, cells with stable DSG2 knockdown; format: cell-based, human; conditions: over 12 hours at 2 nM and 4 nM; compared with cells without knockdown
# Source text: as §1
# [3] = target: human desmoglein 2 (DSG2) (human) (UniProt Q14126); assay: cell-based or functional assay
compound,measurement,setting,value
5′-CCAGTGTTCTACCTAAATA-3′ [DSG2-shRNA62],knockdown of DSG2 protein,DSG2,Efficient knockdown
5′-TGGATGTCAATGACAATAT-3′ [DSG2-shRNA60],knockdown of DSG2 protein,DSG2,Efficient knockdown
CC(C)C[C@H](NC(=O)[C@H](Cc1ccccc1)NC(=O)c1cnccn1)B(O)O [Bortezomib],viability of KMS-11 human multiple myeloma cells,[1],reduced
same,sensitivity to Bortezomib (cell viability) of KMS-11 cells with stable DSG2 knockdown,[2],even further increased sensitivity
human desmoglein 2 (DSG2) (from UniProt Q14126 50-1118),"reduction in adhesion of KMS-11 cells with DSG2 knockdown (shRNA construct A) to a BMEC-DSG2 monolayer, compared to the NT control cell line",[3],28.1%
same,"reduction in adhesion of KMS-11 cells with DSG2 knockdown (shRNA construct C) to a BMEC-DSG2 monolayer, compared to the NT control cell line",[3],35.6%
